The text below walks through data of PMC5154799 (International journal of antimicrobial agents, 2016).

pIC50: −log10 of the molar value.

This test deals with thioredoxin reductase (TrxR, TVAG_474980) (Trichomonas vaginalis, UniProt A0A8U0WQ27). Nature of the test: DTNB reduction assay with NADPH, recombinant TrxR and Trx, absorbance at […] nm. The format is biochemical.

For orientation: pIC50 means −log10 of the IC50, conventionally taken in molar units. `CC(=O)OC[C@H]1O[C@@H]([S-])[C@H](OC(C)=O)[C@@H](OC(C)=O)[C@@H]1OC(C)=O.CCP(CC)CC.[Au+]` [AF, auranofin]: the pIC50 was 7.07.
